Key:
[1] = system: CD4, CXCR4, CCR5 on CD4+ T lymphocytes; experiment: Surface CD4, CXCR4, CCR5 expression in CD4+ T lymphocytes (cytometry); assay type: cell-based, human; details: cells from three donors, different concentrations, 24 h
Experimental: For analysis of cell surface marker expression, MT-4 cells and bead-selected CD4+ T cells (described above) were incubated with 1 µM of each compound (ING-A, ING-B, ING-C, prostratin, PMA, and bryostatin-1) at 37°C for 48 h. After incubation, cells were washed with PBS and incubated for 20 min at room temperature with antibodies against CD3-Brilliant Violet 510 (clone OKT3 – Biolegend), CD4-Qdot 655 (clone 53.5 - Life Technologies), CXCR4-PE (clone 1265 - BD Biosciences), CCR5-PerCP-Cy5.5 (clone 3A9 - BD Biosciences), CD69-Pacific Blue (clone FN50 – BD Biosciences), CD38-FITC (clone AT-1 – Stem Cell Technologies), CD25-APC (clone 2A3 – BD Biosciences), HLA-DR-Qdot 605 (clone TÜ36 – Life Technologies) and a marker for annexin V-FITC (Life Technologies). Cells (both MT-4 cells and CD4+ T cells) were initially incubated for 2 h with different PKC inhibitors (GÖ6983, GÖ6976 or RO-31-8220). Then, ING-B, prostratin or PMA at 1 µM or TNF-α at 10 ng/mL were added to each condition and incubation was carried out for 24 h at 37°C. Similar protocol was used for the analysis of PKC inhibitors in J-Lat clones 9.2 and 10.6. GFP expression, surface marker expression and activation marker were evaluated on a LSR Fortessa cytometer (BD Biosciences). Data analysis was performed using FlowJo software (Tree Star).

[2] = design: method as in earlier work; details: rats, oral dosing; ref personal communication from Aurigon Life Science – Tutzing, Germany; cited from earlier work

Which “downregulation of CD4, CCR5 and CXCR4, dose dependence” value [1] does the source give for `CCCCCC(=O)O[C@H]1C(C)=C[C@]23C(=O)[C@@H](C=C(CO)[C@@H](O)[C@]12O)[C@H]1[C@@H](C[C@H]3C)C1(C)C` [ING-B, ingenol-3-hexanoate] here?
Its value is “dose dependent”.

And the no-observed-adverse-effect level [2]?
Its no-observed-adverse-effect level is 4 mg/kg/day.

From publication PMC4020785 (PLoS ONE, 2014)
